In ChEMBL document CHEMBL1143622 (J Med Chem, 2005):

Key:
[1] = Inhibitory activity against thrombin
[2] = Inhibitory activity against Coagulation factor X
[3] = Inhibitory activity against trypsin
[4] = molecular target: Integrin alpha-IIb/beta-3 (Homo sapiens, UniProt P05106+P08514); experiment: Inhibitory activity against binding of Fibrinogen to thrombocyte alpha IIb beta-3 integrin; assay type: protein-complex assay
[5] = molecular target: Thrombin & trypsin (Homo sapiens) (UniProt P00734+P07477+P07478+P35030); experiment: Selectivity against Thrombin to that of trypsin; assay type: protein assay
[6] = Inhibitory activity against thrombocyte aggregation induced by collagen; assay type: functional
[7] = Inhibitory activity against thrombocyte aggregation induced by ADP; assay type: functional

Chain of Integrin alpha-IIb/beta-3 (P05106 27-788 limits assumed): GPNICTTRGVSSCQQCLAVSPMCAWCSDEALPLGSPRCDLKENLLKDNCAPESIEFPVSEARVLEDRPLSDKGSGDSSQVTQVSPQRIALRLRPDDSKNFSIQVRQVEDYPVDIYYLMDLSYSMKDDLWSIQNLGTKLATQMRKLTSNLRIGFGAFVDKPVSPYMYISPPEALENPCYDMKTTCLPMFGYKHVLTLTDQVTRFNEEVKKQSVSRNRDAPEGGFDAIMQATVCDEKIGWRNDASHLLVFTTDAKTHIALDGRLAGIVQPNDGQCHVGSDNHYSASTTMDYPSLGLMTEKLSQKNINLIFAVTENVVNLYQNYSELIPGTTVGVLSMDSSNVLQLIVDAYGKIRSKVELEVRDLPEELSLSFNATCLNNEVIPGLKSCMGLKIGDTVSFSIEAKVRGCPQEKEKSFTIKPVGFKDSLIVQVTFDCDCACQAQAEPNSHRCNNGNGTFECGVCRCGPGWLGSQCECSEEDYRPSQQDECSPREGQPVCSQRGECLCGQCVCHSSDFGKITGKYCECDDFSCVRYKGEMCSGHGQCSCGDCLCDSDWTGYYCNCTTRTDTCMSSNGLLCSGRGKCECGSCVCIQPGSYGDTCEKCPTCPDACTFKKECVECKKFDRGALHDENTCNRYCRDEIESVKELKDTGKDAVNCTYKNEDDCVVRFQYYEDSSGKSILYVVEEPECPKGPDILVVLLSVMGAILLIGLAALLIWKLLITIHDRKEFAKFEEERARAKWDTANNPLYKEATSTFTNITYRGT
Chain of Integrin alpha-IIb/beta-3 (P08514 32-887 limits assumed): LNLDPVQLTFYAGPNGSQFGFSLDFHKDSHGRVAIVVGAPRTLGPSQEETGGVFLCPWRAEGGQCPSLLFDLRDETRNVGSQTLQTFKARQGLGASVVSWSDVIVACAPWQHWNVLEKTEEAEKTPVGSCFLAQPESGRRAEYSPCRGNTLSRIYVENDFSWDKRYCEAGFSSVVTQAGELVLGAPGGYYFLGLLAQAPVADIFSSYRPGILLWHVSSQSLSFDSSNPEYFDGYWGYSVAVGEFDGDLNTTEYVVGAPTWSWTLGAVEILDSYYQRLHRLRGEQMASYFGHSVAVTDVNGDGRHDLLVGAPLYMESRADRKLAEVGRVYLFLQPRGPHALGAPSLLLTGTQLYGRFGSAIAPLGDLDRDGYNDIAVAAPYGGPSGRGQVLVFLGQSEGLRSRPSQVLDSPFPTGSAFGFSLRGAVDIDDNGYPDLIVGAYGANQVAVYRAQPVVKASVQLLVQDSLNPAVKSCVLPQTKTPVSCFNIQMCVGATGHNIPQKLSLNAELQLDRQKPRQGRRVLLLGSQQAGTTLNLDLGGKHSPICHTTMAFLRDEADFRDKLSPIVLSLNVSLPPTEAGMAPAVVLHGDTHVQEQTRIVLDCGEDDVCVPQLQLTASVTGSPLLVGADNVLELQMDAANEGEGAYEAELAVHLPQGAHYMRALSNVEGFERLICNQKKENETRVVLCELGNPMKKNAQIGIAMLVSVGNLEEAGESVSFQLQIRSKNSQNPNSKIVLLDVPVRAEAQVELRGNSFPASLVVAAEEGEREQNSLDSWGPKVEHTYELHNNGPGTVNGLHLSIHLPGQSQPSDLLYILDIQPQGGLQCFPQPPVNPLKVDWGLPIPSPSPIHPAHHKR
Chain of Integrin alpha-IIb/beta-3 (P08514 891-1039 limits assumed): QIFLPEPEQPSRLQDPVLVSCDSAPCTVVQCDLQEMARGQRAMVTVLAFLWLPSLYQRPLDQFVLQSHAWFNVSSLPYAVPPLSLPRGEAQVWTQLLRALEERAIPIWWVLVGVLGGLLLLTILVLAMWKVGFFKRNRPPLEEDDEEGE

Row | SMILES | Ki [1] | Ki [2] | Ki [3] | Ki [4] | Selectivity [5] | IC50 [6] | IC50 [7]
1 | N=C(N)c1ccc(CN2C(=O)COc3cc(NC(=O)C(Cc4ccccc4)C(=O)O)ccc32)cc1 (stereo not given) | 53.8 µM | 31.6 µM | 5.5 µM | 3.94 µM | 0.1 | – | –
2 | CCOC(=O)CC[C@H](NC(=O)C(Cc1ccccc1)C(=O)Nc1ccc2c(c1)OCC(=O)N2Cc1ccc(C(=N)N)cc1)C(=O)OCC (stereo not given in full) | 21.6 µM | 19.2 µM | 10.5 µM | 3.66 µM | 0.5 | – | –
3 | CCOC(=O)[C@H](C)NC(=O)[C@H](Cc1ccccc1)C(=O)Nc1ccc2c(c1)OCC(=O)N2Cc1ccc(C(=N)N)cc1 | 20.6 µM | 21.1 µM | 9.6 µM | 59.1 µM | 0.5 | – | –
4 | CN1C(=O)C(OCc2ccc(C(=N)N)cc2)Oc2cc(C(=O)N[C@@H](CC(=O)O)c3ccccc3)ccc21 (stereo not given in full) | 14.9 µM | > 200 µM | 26.5 µM | 1.64 µM | – | – | –
5 | N=C(N)c1ccc(CN2C(=O)COc3cc(NC(=O)C(Cc4ccccc4)C(=O)N[C@@H](CCC(=O)O)C(=O)O)ccc32)cc1 (stereo not given in full) | 49.4 µM | 25.7 µM | 17.7 µM | 0.206 µM | 0.4 | – | –
6 | CCOC(=O)[C@H](C)NC(=O)C(Cc1ccccc1)C(=O)Nc1ccc2c(c1)OCC(=O)N2Cc1ccc(C(=N)N)cc1 (stereo not given in full) | 21.3 µM | 26.8 µM | 12.1 µM | 7.3 µM | 0.57 | – | –
7 | COC(=O)C(Cc1ccccc1)C(=O)Nc1ccc2c(c1)OCC(=O)N2Cc1ccc(C(=N)N)cc1 (stereo not given) | 38.6 µM | 22.3 µM | 5.3 µM | 0.973 µM | 0.14 | 85 µM | 63 µM
8 | CCOC(=O)CC[C@H](NC(=O)[C@H](Cc1ccccc1)C(=O)Nc1ccc2c(c1)OCC(=O)N2Cc1ccc(C(=N)N)cc1)C(=O)OCC | 23.3 µM | 54.1 µM | 46.2 µM | 3.94 µM | 2 | – | –
9 | CCOC(=O)[C@H](Cc1ccccc1)C(=O)Nc1ccc2c(c1)OCC(=O)N2Cc1ccc(C(=N)N)cc1 | 16.3 µM | 8.8 µM | 5.5 µM | 5.19 µM | 0.3 | – | –
10 | CCOC(=O)C[C@H](NC(=O)c1ccc2c(c1)OC(OCc1ccc(C(=N)N)cc1)C(=O)N2C)c1ccccc1 (stereo not given in full) | – | 54.6 µM | 16 µM | 24.6 µM | 4.2 | – | –
11 | CCOC(=O)CNC(=O)C(Cc1ccccc1)C(=O)Nc1ccc2c(c1)OCC(=O)N2Cc1ccc(C(=N)N)cc1 (stereo not given) | 12.1 µM | 20.6 µM | 8.4 µM | 6.84 µM | 0.69 | – | –
